For assay [1], the system named is c-Myc oncogene expression. As to conditions: previous study with BD2-selective BET inhibitor; cited from earlier work.
For a further assay, the system named is HDMB03 cells. Put plainly: cell viability, CellTiter-Glo. In kind it is cell-based, human. As to conditions: Homo sapiens. As for the experimental part: Human G3 medulloblastoma or mouse SHH medulloblastoma cells were grown as neurospheres in supplemented neurobasal medium, as previously described (Kawauchi et al., 2012.)
(§1) After 7 days of treatment, an equal volume of CellTiter-Glo reagent (G7572, Promega) was added and the luminescence signal was measured using an automated Envision plate reader (Perkin-Elmer). Luminescence data were normalized by log10 transformation prior to calculating the percent inhibition using the following equation:
(§2) 100*(negative control mean −compound value)/(negative control mean −positive control mean).
High-throughput assay data were analyzed using Robust Interpretation of Screening Experiments (RISE) application written in Pipeline Pilot (Accelrys, v. 8.5) and the R program (R Development Core Team).
Dose-response curves were calculated by regressing the median percent inhibition obtained over triplicate experiments to log 10-transformed concentrations. Non-linear regression was then performed using the R drc package with the four parameter log-logistic function (LL2.4) (Ritz and Streibig, 2009). Curves were fit under three different constraints: (1) all parameters free, (2) high response fixed to 100, (3) low response fixed to 0; and the best fit from these three nested models was selected using the anova.drc function.
For orientation: Cellular ATP, detected with luciferase, serves as a proxy for viable cell number.

Assay [2] deals with neural crest tumor cell lines. The assay can be described thus: activity versus neural crest tumor cell lines. As to conditions: several neural crest tumor cell lines; read-out: IC50 ranges. In kind it is cell-based.
The subject of assay [3] is c-Myc expression in HDMB03 cells. The assay can be described thus: c-Myc expression inhibition, high content microscopy (HCM). In kind it is cell-based, human. As to conditions: Homo sapiens.
For the next assay, the target named is BRD3-BD1 (Homo sapiens (Human), UniProt Q15059). Put plainly: competitive TR-FRET assay, BET-BD with acetylated peptide ligand. In kind it is binding. As to conditions: for EC50: Table 4, read-out: BRD3(1). As for the experimental part:
(§3) Inhibitor potency was determined using a competitive TR-FRET assay as detailed herein, measuring interaction of the respective BET-BD with an acetylated peptide ligand (Table 2).

The target of another assay is BRD4-BD2 (Homo sapiens (Human), UniProt O60885). The assay is described as above. In kind it is binding. As to conditions: for 4(1)/4(2): Table 4, ratio of EC50; for EC50: Table 4, read-out: EC50 (μM) BRD4(2). As for the experimental part: as §3
For a further assay, the target named is BRDT (Homo sapiens, UniProt Q58F21). The assay is described as above. It counts as binding. As to conditions: for EC50: Table 4, read-out: BRDT EC50. As for the experimental part:
as §3

The target of a further assay is BRD4-BD1 (Homo sapiens (Human), UniProt O60885). The description is as above. It counts as binding. As to conditions: for EC50: Table 4, read-out: EC50 (μM) BRD4(1). As for the experimental part: as §3
Assay [4] deals with T1, BRD2-BD2 (Homo sapiens (Human), UniProt P25440). Described as above. It counts as binding. As to conditions: for [2(1)/2(2)]: Table 4, ratio of EC50; for EC50: Table 4, read-out: EC50 (μM) BRD2(2). As for the experimental part:
as §3
Target sequence in this assay (P25440 344-453): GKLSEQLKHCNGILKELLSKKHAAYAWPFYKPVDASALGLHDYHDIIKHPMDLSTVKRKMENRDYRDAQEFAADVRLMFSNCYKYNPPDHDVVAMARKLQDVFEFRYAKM

In assay [5] the target is T2, BRD2-BD1 (Homo sapiens (Human), UniProt P25440). The assay is described as above. In kind it is binding. As to conditions: for EC50: Table 4, read-out: EC50 (μM) BRD2(1). As for the experimental part: as §3
Target sequence in this assay (P25440 74-180): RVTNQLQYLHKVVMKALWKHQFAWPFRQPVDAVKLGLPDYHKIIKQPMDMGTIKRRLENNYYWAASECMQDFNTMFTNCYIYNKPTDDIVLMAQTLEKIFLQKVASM
Another assay deals with SEM cells. Put plainly: anti-proliferative activity. It counts as cell-based. As to conditions: Table 5. As for the experimental part: as §1, §2
The test system of a further assay is NALM-16. The assay can be described thus: anti-proliferative activity. As to conditions: NALM16; Table 5. In kind it is cell-based. As for the experimental part: as §1, §2
The test system of another assay is Loucy. Put plainly: anti-proliferative activity. It counts as cell-based. As to conditions: Table 5. As for the experimental part:
as §1, §2

Assay [6] concerns BRD2-BD2. Put plainly: isothermal titration calorimetry analysis of binding. As to conditions: ITC Kd BRD2-BD1 / BRD2-BD2. As for the experimental part: (§4) b. Isothermal Titration Calorimetry Analysis of Binding to Brd2-BD1 and Brd2-BD2
(§5) Binding of compounds to BRD2 was monitored using an ITC200 (Microcal, Piscataway, N.J.). Either Brd2.1 (74-194) or Brd2.2 (348-455) was dialyzed overnight into a solution containing 50 mM HEPES, pH 7.0 and 150 mM NaCl at 15° C. Enzyme concentrations were determined after dialysis by absorbance at 280 nm using a molar extinction coefficient (ε280) of 25,565 M^−1 cm^−1 (2.1) or 16,055 M^−1 cm^−1 (2.2). Enzyme was diluted in dialysis buffer and 39.6 μL was loaded into the syringe. Compounds were dissolved in the same dialysis buffer and loaded in the cell to a volume of 204 μL. Injections were carried out by serial injections of enzyme; first, 1 injection of 1 μL, followed by 19 incremental injections of 2 μL, at 120 second intervals. Data from the first injection was excluded, due to pre-equilibration mixing between the contents of cell and syringe at the syringe tip. Peak areas were integrated, normalized, and then fitted by non-linear regression using the independent sites model in Origin™ (version 2.3.6, Microcal, Piscataway, N.J.).
A general note: In ITC the heat of successive injections is recorded.

Assay [7] deals with T1, BRD2-BD2. The assay is described as above. As to conditions: ITC. As for the experimental part: as §4, §5
Target sequence in this assay (P25440 348-455): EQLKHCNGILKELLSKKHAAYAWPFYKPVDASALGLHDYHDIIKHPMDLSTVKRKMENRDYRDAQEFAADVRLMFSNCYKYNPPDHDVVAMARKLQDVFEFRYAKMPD
Assay [8] addresses T2, BRD2-BD1. The description is as above. As to conditions: ITC. As for the experimental part: as §4, §5
Target sequence in this assay (P25440 74-194): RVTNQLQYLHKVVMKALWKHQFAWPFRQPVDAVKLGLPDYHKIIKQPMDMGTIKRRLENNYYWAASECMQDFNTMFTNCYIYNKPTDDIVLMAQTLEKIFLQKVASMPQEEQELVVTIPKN
Another assay concerns the target BRD3(2) (Homo sapiens (Human), UniProt Q15059). Put plainly: BROMOscan KD determination. It counts as binding. An excerpt:
(§6) DiscoverX® can screen compounds against all ˜42 bromodomains (a service called BROMOscan) and perform follow-up KD determination. This service is considered the industrial standard for bromodomain inhibitor comparisons.

The target in the next assay is BRD4(1) (Homo sapiens (Human), UniProt O60885). The assay can be described thus: BROMOscan KD determination. In kind it is binding. As to conditions: Table 10.
Text: as §6

In a further assay the target is BRD4(2) (Homo sapiens (Human), UniProt O60885). The assay can be described thus: BROMOscan KD determination. In kind it is binding.
Text: as §6

A further assay deals with BRD3(1) (Homo sapiens (Human), UniProt Q15059). The assay can be described thus: BROMOscan KD determination. As to conditions: Table 10. It counts as binding.
Chain of BRD3(1) (Q15059 34-140): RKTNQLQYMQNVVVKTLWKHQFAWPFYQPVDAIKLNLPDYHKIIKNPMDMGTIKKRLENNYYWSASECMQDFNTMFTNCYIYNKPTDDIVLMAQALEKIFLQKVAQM
Text: as §6

In another assay the target is BRDT(1) (Homo sapiens (Human), UniProt Q58F21). The assay can be described thus: BROMOscan KD determination. In kind it is binding. As to conditions: Table 10. The text has this:
(§7) DiscoverX® can screen compounds against all ˜42 bromodomains (a service called BROMOscan) and perform follow-up KD determination. This service is considered the industrial standard for bromodomain inhibitor comparisons. […] Dots are symbolic of inhibition of the compound at this concentration; the larger the size of the dot, the greater the activity of the compound. […] Though these compounds are selective for the BET family, the selectivity within the BET family is poor. The results of a competitive binding experiment between compounds 19 (left), 41 (center), and 56 (right) (at a single concentration, 1 μM) and a control for each of the bromodomains are shown in FIG. 5.

In another assay the target is BRD2(2) (Homo sapiens (Human), UniProt P25440). The assay can be described thus: BROMOscan KD determination. It counts as binding.
Chain of BRD2(2) (P25440 344-453): as the sequence (P25440 344-453) above
Text: as §7

In the next assay the target is BRD2(1) (Homo sapiens (Human), UniProt P25440). Put plainly: BROMOscan KD determination. It counts as binding. As to conditions: Table 10.
Chain of BRD2(1) (P25440 74-180): as the sequence (P25440 74-180) above
Text: as §7

For a further assay, the target named is BRDT(2) (Homo sapiens (Human), UniProt Q58F21). Put plainly: BROMOscan KD determination. In kind it is binding.
Text: as §7

Setting [9] is: HD-MB03, Table 5, read-out: EC50 (μM) HDMB03.
[10] abbreviates: HD-MB03, Table 5, read-out: EC50 (μM) Myc-inhibition.
Setting [11] is: Table 2, inhibitor potency by TR-FRET.

Where two headings read alike, the source gives them in different places. Bounds are passed on as bounds.

Chain of BRD3-BD1 (Q15059 34-140): as the sequence (Q15059 34-140) above
Chain of BRD3(2) (Q15059 306-415): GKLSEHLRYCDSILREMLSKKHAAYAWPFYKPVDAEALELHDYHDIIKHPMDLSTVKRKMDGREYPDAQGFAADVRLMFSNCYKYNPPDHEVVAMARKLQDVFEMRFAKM

For `COc1cc(OC)c2c(=O)[nH]c(-c3cc(C)c(OCCO)c(C)c3)nc2c1` [RVX-208], in assay [1], the c-Myc oncogene expression entry was “did not inhibit c-Myc oncogene expression”.

As for `COc1ccccc1N[C@@H]1C[C@H](C)N(C(C)=O)c2ccc(-c3cccc(NC(C)=O)c3)cc21` [compound 40], the EC50 in the assay on HDMB03 cells (setting [9]) came out at 17.6 µM; in assay [3] (setting [10]), 0.49 µM; at BRD3-BD1, 2000 nM; at BRD4-BD2, 0.1 µM; on BRDT, 9100 nM; at BRD4-BD1, 6 µM. For the same compound, the EC50 at BRD2-BD2 [4] amounted to 0.06 µM; at BRD2-BD1 [5], 4.2 µM; in the assay on SEM cells, 0.02 µM; in the assay on NALM-16, 0.26 µM; with Loucy, 0.32 µM. The IC50 (as a rule, the midpoint of a concentration-inhibition curve) in [2] was 50 to 200 nM. Also, at BRD4-BD2, the “4(1)/4(2)” value is 52.9. The “[2(1)/2(2)]” value on BRD2-BD2 [4] amounted to 75.

In the case of `CC(=O)N1c2ccc(-c3ccoc3)cc2[C@H](NC(=O)OC(C)C)C[C@@H]1C` [compound 51], the EC50 in the assay on HDMB03 cells (HD-MB03, HDMB03 cells, read-out: cell viability EC50) was 3.3 µM; in [3] (HD-MB03, HDMB03 cells, read-out: c-Myc expression EC50), 1 µM. Further, the IC50 amounted to 2300 nM on BRD3-BD1 (setting [11]); 4300 nM at BRD4-BD2 (setting [11]); 23000 nM on BRDT (setting [11]); 5800 nM at BRD4-BD1 (setting [11]); 1420 nM on BRD2-BD2 [4] (setting [11]); 7230 nM on BRD2-BD1 [5] (setting [11]). The BD1/BD2 at BRD2-BD2 [4] (Table 2, ratio BRD2-BD1/BRD2-BD2) is recorded as 5. Also, in the assay with BRD2-BD2 [6], the “Selectivity (2-1/2-2)” value amounted to 0.5. Also, the “ΔG” value is -8.61 kcal/mol at BRD2-BD2 [7] (BRD2-BD2) and -8.96 kcal/mol on BRD2-BD1 [8] (BRD2-BD1). The “ΔH” value at BRD2-BD2 [7] (BRD2-BD2) was -6.31 kcal/mol; on BRD2-BD1 [8] (BRD2-BD1), -9.90 kcal/mol. Also, the “−TΔS” value on BRD2-BD2 [7] (BRD2-BD2) was -2.29 kcal/mol; on BRD2-BD1 [8] (BRD2-BD1) it was 0.94 kcal/mol. Besides, the Kd (commonly the constant that tells how readily two partners part at equilibrium) on BRD2-BD2 [7] (BRD2-BD2, average of 3 experiments, read-out: average Kd) is 300 nM; at BRD2-BD1 [8] (BRD2-BD1, average of 3 experiments, read-out: average Kd) it was 162 nM.

On to `CC(=O)Nc1cccc(-c2ccc3c(c2)[C@H](Nc2ccccc2OC(F)(F)F)C[C@H](C)N3C(C)=O)c1` [compound 19], for which the EC50 is 1.14 µM with HDMB03 cells (setting [9]); 0.11 µM in [3] (setting [10]); 5400 nM at BRD3-BD1; 0.14 µM at BRD4-BD2; 10000 nM on BRDT; 8.3 µM on BRD4-BD1. Moreover, the EC50 at BRD2-BD2 [4] was 0.16 µM; on BRD2-BD1 [5] it was 8.3 µM; in the assay on SEM cells, 0.04 µM; with NALM-16 it was greater than 1.7 µM. Moreover, the “4(1)/4(2)” value on BRD4-BD2 was found to be 59; at BRD4(2) (BROMOscan KD ratio), 58.2. The “[2(1)/2(2)]” value at BRD2-BD2 [4] is listed as 52; at BRD2(2) (BROMOscan KD ratio), 48.6. The “3(1)/3(2)” value on BRD3(2) (BROMOscan KD ratio) was found to be 84.6. Further, the Kd came out at 1.3 nM at BRD3(2) (BROMOscan, Table 10); 99 nM at BRD4(1); 1.7 nM at BRD4(2) (BROMOscan, Table 10); 110 nM at BRD3(1); 72 nM on BRDT(1); 3.5 nM at BRD2(2) (BROMOscan, Table 10). Further, the Kd is 170 nM at BRD2(1) and 11 nM at BRDT(2) (BROMOscan, Table 10). The “T(1)/T(2)” value at BRDT(2) (BROMOscan KD ratio) came to 6.5.

For `CC(=O)Nc1cccc(-c2ccc3c(c2)[C@H](Nc2ccc(Cl)cc2)C[C@H](C)N3C(C)=O)c1` [compound 10], the EC50 with HDMB03 cells (setting [9]) came out at 1.18 µM; in assay [3] (setting [10]) it was 0.68 µM; on BRD3-BD1, 1900 nM; on BRD4-BD2 it was 0.21 µM; on BRDT, 3700 nM; at BRD4-BD1, 3.1 µM. For the same compound, the EC50 at BRD2-BD2 [4] came to 0.08 µM; on BRD2-BD1 [5] it was 2.6 µM; in the assay with NALM-16, 0.33 µM. For the same compound, the “4(1)/4(2)” value on BRD4-BD2 stood at 15. Besides, on BRD2-BD2 [4], the “[2(1)/2(2)]” value is on record as 33.

The values above are taken from patent US11028051B2, “Tetrahydroquinoline-based bromodomain inhibitors” (St. Jude Children's Research Hospital, priority 2016, dated 2021).
